Results taken from paper PMC8074792, “An ω-3, but Not an ω-6 Polyunsaturated Fatty Acid Decreases Membrane Dipole Potential and Stimulates Endo-Lysosomal Escape of Penetratin” (Frontiers in Cell and Developmental Biology, 2021).

Columns and labels:
[1] = system: THP-1 cells; conditions: 50 μM fatty acid 48 h, LysoTracker Deep Red and 10 µM PY3174 2 h at 37°C, extent similar to cell membrane
Method: (§1) Measurement of hydration of lysosomal membranes with fluorescence microscopy […]
(§2) The PY3174 fluorophore capable of providing information about the hydration of the cell membrane […]
(§3) via an emission ratiometric fluorescence microscopy assay was a kind gift from Leslie M. Loew […]
(§4) (University of Connecticut, CT) (1). For these measurements, cells were placed onto an 8-well […]
(§5) chambered coverglass and labeled with 100 nM LysoTracker Deep Red (Thermo Fisher Scientific, […]
(§6) Waltham, MA) for visualization of lysosomes and 10 µM PY3174 for 2 hours at 37°C to stimulate the […]
(§7) endocytosis of the environment-sensitive fluorophore. After staining, images were taken at the […]
(§8) midplane of cells using an LSM880 confocal laser-scanning microscope (Carl Zeiss AG, Jena, […]
(§9) Germany). PY3174 was excited at 488 nm and emitted intensities were measured in two wavelength […]
(§10) ranges between 500 and 540 nm (Iblue) and 650 and 735 nm (Ired), while LysoTracker Deep Red was […]
(§11) excited at 633 nm and emission was detected between 650 and 735 nm. During processing, pixels […]
(§12) corresponding to lysosomal membranes were identified based on the intensity of LysoTracker Deep […]
(§13) Red using a custom-written algorithm under MATLAB. The average value of generalized polarization […]
(§14) (GP) correlating with the degree of membrane hydration (1) was calculated from the data of lysosomal […]
(§15) membrane pixels after background subtraction using […]
(§16) (1 picture or pasted object on this page, not shown here)

[2] = system: JY cells; conditions: 50 μM fatty acid 48 h, LysoTracker Deep Red and 10 µM PY3174 2 h at 37°C, extent similar to cell membrane
Method: as §1, §2, §3, §4, §5, §6, §7, §8, §9, §10, §11, §12, §13, §14, §15, §16

[3] = system: THP-1 cells; test: Membrane fluidity, TMA-DPH fluorescence anisotropy; assay type: cell-based, human; conditions: 200 μM sterol 1 h or 50 μM fatty acid 48 h, 37°C, n = 6, vs control
Method: (§17) 4′-(trimethylammonio)-diphenylhexatriene (TMA-DPH) was purchased from Sigma-Aldrich, dissolved in tetrahydrofuran and used for determination of membrane fluidity as described previously ([Batta et al., 2018]). […] Fluorescence intensities were measured without washing using a Fluorolog-3 spectrofluorometer (Horiba Jobin Yvon, Edison, NJ, United States) with the temperature of the cuvette holder adjusted to 37°C by a circulating water bath. The fluorescence anisotropy (r) of TMA-DPH was determined in the L-format after excitation at 352 nm and measurement of fluorescence intensities at 430 nm according to the formula: […]

[4] = system: JY cells; test: Membrane fluidity, TMA-DPH fluorescence anisotropy; assay type: cell-based, human; conditions: 200 μM sterol 1 h or 50 μM fatty acid 48 h, 37°C, n = 6, vs control
Method: as §17

## CC/C=C\C/C=C\C/C=C\CCCCCCCC(=O)O [ALA, α-linolenic acid]
[1]
  generalized polarization of PY3174 in the lysosomal membranes: decreased
[2]
  generalized polarization of PY3174 in the lysosomal membranes: decreased
[3]
  TMA-DPH fluorescence anisotropy (inversely correlates with membrane fluidity): significantly decreased
[4]
  TMA-DPH fluorescence anisotropy (inversely correlates with membrane fluidity): significantly decreased

## CCCCC/C=C\C/C=C\C/C=C\CCCCC(=O)O [GLA, γ-linolenic acid]
[1]
  generalized polarization of PY3174 in the lysosomal membranes: decreased
[2]
  generalized polarization of PY3174 in the lysosomal membranes: decreased
[3]
  TMA-DPH fluorescence anisotropy (inversely correlates with membrane fluidity): did not reach statistical significance
[4]
  TMA-DPH fluorescence anisotropy (inversely correlates with membrane fluidity): did not reach statistical significance
